This series is described as follows: Yellowing study by UV-Vis percentage transmission after UV exposure. The class given is physicochemical. Conditions: 1 wt. % in dichloromethane; percentage transmission across visible range; cured at 0, 100, 500, 1000 and 3000 mJ; FIG. 2. From the text: UV-Vis spectroscopy was used to measure the compound yellowing by measuring the percentage transmission for each of the compounds across the visible range. This was done by dissolving 1 wt. % of each compound in a solvent, usually dichloromethane, and measuring the solutions percentage transmission on the Hitachi UV-Vis spectrometer, with air as a baseline. The solutions were then cured at a variety of different doses (0, 100, 500, 1000 and 3000 mJ) and the transmission measured again.
Anhydrous dichloromethane was used to dissolve the mixtures, as it remains unaffected when exposed to UV light. By comparing these percentage transmissions it could be concluded, which compound yellow and to what extent.
Take `C=CC(=O)OCCCCCCOc1ccc(C(=O)Oc2ccc(C#Cc3ccc(OC)cc3)cc2Cl)cc1` [A]: the “change in yellowing when exposed to UV-light” value is reported as “least amount of change in yellowing”. Consider `C=CC(=O)OCCCCCCOc1ccc(C(=O)Oc2ccc(C#Cc3ccc(OC)cc3)cc2C)cc1` [B], for which the “change in yellowing when exposed to UV-light” value is given as “significant increase in yellowing”. The entry for `C=CC(=O)OCCCCCCOc1ccc(C(=O)Oc2ccc(C#Cc3ccc(OC)cc3)cc2F)cc1` [RM-1] is “least amount of change in yellowing”.

The record behind these values is patent US20180148648A1, “REACTIVE MESOGENS” (Merck Patent GmbH, priority 2015, published 2018).
